Ends that are not written are not given here.
What was measured:
C. neoformans = experiment: Fungicidal/fungistatic tests; assay type: cell-based, Cryptococcus neoformans; set-up: key: Presence (+); absence (–); details: 5 µL plated on YPD agar, 30°C, visual inspection, six replicates
Protocol: Fungicidal/fungistatic tests were conducted with the four especially effective syn-enterocin peptides. C. neoformans was grown at 30°C in YPD overnight to an OD between 0.5 and 1.2 at 600 nm, then the C. neoformans culture was diluted to 10^5 and 10^3 fungal cells per well on a 96-well plate. Each well was treated with peptide at 16 µM before 5 µL per well was transferred onto YPD agar plates. Dilutions to reach desired cell counts were done in YPD. Six replicates of each peptide/dilution combination were plated. Plates were incubated at 30°C for 72 hours. Fungal growth was determined by visual inspection, with presence or absence of fungal growth being recorded (individual colonies were absent or overgrown and thus uncountable).

C. neoformans (KN99α) = details: 96 h
Protocol: C. neoformans and C. auris plates were incubated at 37°C and 5% CO2 for 96 hours after introduction of peptide and read at OD 600nm every 24 hours. […] MICs were determined for suspected positive hits against C. neoformans and C. albicans grown under the conditions previously described with approximately 500 fungal cells per well. […] C. neoformans plates were incubated at 37°C and 5% CO2 for 96 hours after introduction of peptide and read at OD 600nm every 24 hours. […] MICs were determined by approximately 50% inhibition of fungal growth, meaning that fungal growth as measured by OD was reduced 50% by peptide treatment relative to vehicle control.
Percent inhibition was calculated as the reduction
in OD at 600nm following peptide treatment relative to vehicle control. The average of six
replicates was used for each peptide concentration treatment and vehicle control.

Row | Compound | Presence or absence of fungal growth at 72 hrs (C. neoformans; cell count 10^3, treatment 16 μM) | Presence or absence of fungal growth at 72 hrs (C. neoformans; cell count 10^5, treatment 16 μM) | MIC against C. neoformans (C. neoformans (KN99α))
1 | OC(Cn1cncn1)(Cn1cncn1)c1ccc(F)cc1F [Fluconazole] | – | – | 
2 | AGWERIAKELKKYIKKGKKVIRAAW [Peptide 32] |  |  | 2 µM

Reference: article PMC11693670 (Frontiers in Fungal Biology, 2024)
